This note sets out measurements from BindingDB's records for patent US10023557 (LIFESCI PHARMACEUTICALS, INC., 2018).

The target in the assay is Plasma kallikrein (Homo sapiens, UniProt P03952). The experiment in a line: In Vitro Enzyme Inhibition of hPK. The conditions noted are these: pH 7.5. As to the method: A 10 mM solution of the test compound was made in DMSO. […] A control tube containing only DMSO is included. […] 50 μL was removed from this mixture and placed into duplicate wells on a Microfluor 1Black U-bottom microtiter plate (Thermo Scientific). This plate was incubated for 5 minutes at 37° C. To each well, 50 μL of pre-warmed 2×PFR-AMC was added to start the enzymatic reaction. Cleavage of PFR-AMC was monitored in a Biotek Synergy H4 reader set at 37° C. Readings are taken every 43 seconds for 1 hour. […] The IC50 is calculated using the Gen5 (Biotek Instruments).
Chain of Plasma kallikrein (P03952 20-390 limits assumed): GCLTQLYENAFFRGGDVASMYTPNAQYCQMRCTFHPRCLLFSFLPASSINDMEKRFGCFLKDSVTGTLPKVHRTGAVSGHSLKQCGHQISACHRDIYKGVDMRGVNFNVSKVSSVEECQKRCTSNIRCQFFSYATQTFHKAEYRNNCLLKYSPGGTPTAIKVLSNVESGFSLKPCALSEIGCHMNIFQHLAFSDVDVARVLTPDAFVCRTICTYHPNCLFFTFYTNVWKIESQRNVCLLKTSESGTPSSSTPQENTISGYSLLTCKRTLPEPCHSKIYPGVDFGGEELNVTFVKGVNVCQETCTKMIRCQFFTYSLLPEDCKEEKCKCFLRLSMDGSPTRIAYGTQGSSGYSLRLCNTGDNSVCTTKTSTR
Chain of Plasma kallikrein (P03952 391-638 limits assumed): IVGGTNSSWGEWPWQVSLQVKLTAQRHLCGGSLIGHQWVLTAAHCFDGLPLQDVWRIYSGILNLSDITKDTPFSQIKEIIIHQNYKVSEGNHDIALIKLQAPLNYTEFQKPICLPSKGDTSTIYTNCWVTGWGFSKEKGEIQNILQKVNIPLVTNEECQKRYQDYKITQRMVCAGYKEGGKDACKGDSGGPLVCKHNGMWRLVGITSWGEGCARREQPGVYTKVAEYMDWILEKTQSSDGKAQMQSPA

Each structure is given as a SMILES string. Some results are limits rather than exact numbers.

What is called IC50 is the point on the concentration scale where inhibition reaches its midpoint. As to `Cc1nc(N)ccc1CNC(=O)c1ccnc(CC2=CC3C=C(Cl)C=NC3C=C2)c1` (stereo unspecified) [US10023557, Example 39], the IC50 is less than 100 nM.
